Measured values reported in US20100226885A1, “METHOD OF TREATING HEPATITIS C PATIENTS” (priority 2007, published 2010).

Assays:
HCV genotype 1 = experiment: Example 2: Phase II study of treatment-naïve patients, plasma HCV RNA by Roche COBAS TaqMan HCV/HPS assay; type: in vivo, human; details: addition to PegIntron/REBETOL combination therapy, 28 and 48 week regimens
Experimental: The effectiveness of a lead-in period with interferon and ribavirin combination therapy prior to the addition of an HCV protease inhibitor was further evaluated in a study of 595 treatment-naïve patients infected with HCV genotype 1. In this study, boceprevir (compound of Formula 1a) is being evaluated, compared to a control of PegIntron® (peginterferon alfa-2b) at 1.5 mcg/kg QW plus REBETOL® (ribavirin, USP) (800-1400 mg/day) for a treatment period of 48 weeks, in three treatment regimens: • P/R Lead-In +B/P/R: • PegIntron (1.5 mcg/kg QW) in combination with REBETOL (800-1400 mg/day) during a first treatment period of 4 weeks followed by adding boceprevir (800 mg TID) to the combination during a second treatment period of 24 or 44 weeks; thus, the total treatment time with PegIntron and REBETOL was 28 or 48 weeks; • B/P/R: • boceprevir (800 mg TID) in combination with PegIntron (1.5 mcg/kg QW) plus REBETOL (800-1400 mg/day) for a single treatment period of 28 or 48 weeks; and • B/P/Low-dose R: • boceprevir (800 mg TID) in combination with PegIntron (1.5 mcg/kg QW) plus low-dose REBETOL (400-1000 mg/day) for a single treatment period of 48 weeks. […]
Plasma HCV RNA levels were measured using the Roche COBAS TaqMan® HCV/HPS assay (Roche Molecular Systems, Somerville, N.J.).

Hepatitis C = details: by week four; VX-950 alone; cited from earlier work

Row | SMILES | SVR compared to the PegIntron/REBETOL control (HCV genotype 1) | treated patients showing evidence of negative HCV status (Hepatitis C)
1 | CC(C)(C)NC(=O)N[C@H](C(=O)N1CC2C([C@H]1C(=O)NC(CC1CCC1)C(=O)C(N)=O)C2(C)C)C(C)(C)C (some centres unmarked) [boceprevir] | markedly increased SVR | –
2 | CCC[C@H](NC(=O)[C@@H]1[C@H]2CCC[C@H]2CN1C(=O)[C@@H](NC(=O)[C@@H](NC(=O)c1cnccn1)C1CCCCC1)C(C)(C)C)C(=O)C(=O)NC1CC1 [VX-950] | – | 79%
